Source: patent publication US8952033B2, “4-anilinofuro[2,3-b]quinoline derivatives, their preparation processes, and pharmaceutical compositions comprising the same” (Kaohsiung Medical University, priority 2011, dated 2015)

Legend:
[1] = system: NCI-H460 (non-small cell lung carcinoma cell); assay: MTT antiproliferative assay (cell growth %, GI50), NCI-H460; type: cell-based; conditions: Homo sapiens, NCI-H460, 48 hours, MTT; for activity at 4000 µg/mL: 4 mg/ml; for activity at 20000 µg/mL: 20 mg/ml
Protocol: (§1) Antiproliferative activities of the compounds of this invention were evaluated substantially according to the method as described in Tseng, C. […] The cells were treated with the test compounds, i.e., the compounds of this invention (in dimethylsulfoxide (DMSO)), or DMSO for 48 hours.
(§2) Before and after the treatment with the test compounds or DMSO, 3-(4,5-dimethylthiazol-2-yl)-2,5-diphenyltetrazolium bromide (MTT, 2 mg/mL, 100 μL) was added to each of the cultures, followed by cultivation for 2 hours. The resultant formazan was dissolved by the addition of DMSO. Absorbance at 570 nm (OD570) was measured using a microtiter plate reader (Dynex MRX-II).
(§3) Determination of GI50 was conducted thrice for each test compound. GI50 is expressed as mean±SD.

[2] = system: MCF-7 (breast cancer cell); assay: MTT antiproliferative assay (cell growth %, GI50), MCF-7; type: cell-based; conditions: Homo sapiens, MCF7, 48 hours, MTT; for activity at 4000 µg/mL: 4 mg/ml; for activity at 20000 µg/mL: 20 mg/ml
Protocol: as §1, §2, §3

| Structure (SMILES) | activity at 4000 µg/mL [1] | activity at 20000 µg/mL [1] | activity at 4000 µg/mL [2] | activity at 20000 µg/mL [2] |
| --- | --- | --- | --- | --- |
| C/C(=N\OCCN1CCCC1)c1ccc(Nc2c3ccccc3nc3occ(Cl)c23)cc1 [Compound 14e, (E)-1-(4-(3-Chlorofuro[2,3-b]quinolin-4-ylamino)phenyl)ethanone O-2-(pyrrolidin-1-yl)ethyl oxime] | 69% | -1% | 86% | -2% |
| COc1ccc2c(Nc3ccc(/C(C)=N/OCCN4CCOCC4)cc3)c3ccoc3nc2c1 [Compound 15g, (E)-1-(4-(7-Methoxyfuro[2,3-b]quinolin-4-ylamino)phenyl)ethanone O-2-morpholinoethyl oxime] | 96% | 44% | 76% | 25% |
| COc1ccc2c(Nc3ccc(/C(C)=N/OCCCN(C)C)cc3)c3ccoc3nc2c1 [Compound 15d, (E)-1-(4-(7-Methoxyfuro[2,3-b]quinolin-4-ylamino)phenyl)ethanone O-3-(dimethylamino)propyl oxime] | 82% | 5% | 59% | 2% |
| COc1ccc2c(Nc3ccc(/C(C)=N/OCCN4CCCC4)cc3)c3ccoc3nc2c1 [Compound 15e, (E)-1-(4-(7-Methoxyfuro[2,3-b]quinolin-4-ylamino)phenyl)ethanone O-2-(pyrrolidin-1-yl)ethyl oxime] | 69% | 5% | 63% | 3% |
| COc1ccc2c(Nc3ccc(/C(C)=N/OCCCN)cc3)c3ccoc3nc2c1 [Compound 15c, (E)-1-(4-(7-Methoxyfuro[2,3-b]quinolin-4-ylamino)phenyl)ethanone O-3-aminopropyl oxime] | 105% | 16% | 100% | 18% |
| COc1ccc2c(Nc3ccc(/C(C)=N/OCCCCN4CCOCC4)cc3)c3c(Cl)coc3nc2c1 [Compound 16h, (E)-1-(4-(3-Chloro-7-methoxyfuro[2,3-b]quinolin-4-ylamino)phenyl)ethanone O-4-morpholinobutyl oxime] | 87% | 20% | 96% | 5% |
| COc1ccc2c(Nc3ccc(/C(C)=N/OCCCCN4CCOCC4)cc3)c3ccoc3nc2c1 [Compound 15h, (E)-1-(4-(7-Methoxyfuro[2,3-b]quinolin-4-ylamino)phenyl)ethanone O-4-morpholinobutyl oxime] | 89% | 21% | 83% | 75% |
| C/C(=N\OCCN1CCCC1)c1ccc(Nc2c3ccccc3nc3occc23)cc1 [Compound 13e, (E)-1-(4-(Furo[2,3-b]quinolin-4-ylamino)phenyl)ethanone O-2-(pyrrolidin-1-yl)ethyl oxime] | 54% | 1% | 64% | 6% |
| COc1ccc2c(Nc3ccc(/C(C)=N/OCCCN)cc3)c3c(Cl)coc3nc2c1 [Compound 16c, (E)-1-(4-(3-Chloro-7-methoxyfuro[2,3-b]quinolin-4-ylamino)phenyl)ethanone O-3-aminopropyl oxime] | 91% | 8% | 101% | 3% |
| C/C(=N\OCCN(C)C)c1ccc(Nc2c3ccccc3nc3occ(Cl)c23)cc1 [Compound 14b, (E)-1-(4-(3-Chlorofuro[2,3-b]quinolin-4-ylamino)phenyl)ethanone O-2-(dimethylamino)ethyl oxime] | 68% | -1% | 70% | -3% |
| C/C(=N\OCCN1CCCCC1)c1ccc(Nc2c3ccccc3nc3occ(Cl)c23)cc1 [Compound 14f, (E)-1-(4-(3-Chlorofuro[2,3-b]quinolin-4-ylamino)phenyl)ethanone O-2-(piperidin-1-yl)ethyl oxime] | 101% | 3% | 121% | 26% |
| COc1ccc2c(Nc3ccc(/C(C)=N/OCCN4CCCC4)cc3)c3c(Cl)coc3nc2c1 [Compound 16e, (E)-1-(4-(3-Chloro-7-methoxyfuro[2,3-b]quinolin-4-ylamino)phenyl)ethanone O-2-(pyrrolidin-1-yl)ethyl oxime] | 53% | 5% | 55% | 1% |
